{"source": "patent US20160235807A1", "about": "“AGONISTS OF GUANYLATE CYCLASE USEFUL FOR DOWNREGULATION OF PRO-INFLAMMATORY CYTOKINES” (SYNERGY PHARMACEUTICALS, INC., priority 2013, published 2016)", "key": {"Src": {"tested_on": "Src", "assay": "Activation of Src and GCRA-mediated cGMP production by T84 cells (FIG. 13)", "format": "cell-based, human", "conditions": "activation of Src"}, "DSS-induced colitis": {"tested_on": "DSS-induced colitis", "assay": "DSS-induced colitis in BDF-1 mice", "format": "in vivo, mouse", "experimental": "To evaluate the efficacy of plecanatide in DSS induced colitis model, 48 BDF-1 mice were divided into 8 treatment groups (6 mice/group). One group was not exposed to DSS (untreated control) and groups 2-8 were treated with 5% DSS in the drinking water on day 0. Plecanatide or SP-333 solutions formulated in 0.1M phosphate buffer (pH 7) was administered by oral gavage, once a day at 0.005, 0.05, 0.5, 2.5 and 5 mg/kg, from study day −1 (i.e. prior to initiation of DSS treatment) through day 6 for SP-333 or day 7 for plecanatide. DSS treatment was initiated on day 0 for groups 2-8 until the end of the study. Sulfasalazine (80 mg/kg) or 5-ASA (100 mg/kg) was used as positive control and was administered daily. Mice were sacrificed on day 7. The large intestine was removed and weighed. Distal section of the large intestine was collected and fixed as described above.\nDisease activity index (DAI) was calculated by scoring in-life parameters starting from day −1 until the end of the study. Once daily, all mice were weighed and assessed for stool consistency, and the presence of overt blood in the stool or around the anus essentially similar to that reported earlier. Colitis severity was assessed by histopathological analyses of H&E stained tissue sections (Hegazi et al., 2005; Dave et al., 2009) employing the following criteria: (score 0) normal appearing crypts; (score 1) abnormal crypt pathology without ulceration; (score 2) depleted crypts with ulceration; (score 3) 20-50% depleted crypts and increased ulceration; (score 4) >50% depleted crypts with substantial ulceration and (score 5) totally ulcerated/inflamed colon with no crypts remaining. All slides were scored in a blinded manner. Colitis severity in TCRα−/− model was scored as previously described^25. All slides were scored in a blinded manner. Disease activity index (DAI) was calculated by assessing body weight, stool consistency, and the presence of overt blood in stools or around the anus, essentially similar to that reported earlier (Hamamoto et al., 1999)."}, "[1]": {"tested_on": "myeloperoxidase (MPO) activity in colon tissues", "assay": "MPO activity in lysates from mid-colon tissues, DSS-induced colitis in BDF-1 mice", "format": "in vivo, mouse", "conditions": "5-ASA 100 mg/kg", "experimental": "(§1) A total of 40 samples were chosen for analysis of MPO activity and Ki-67 labeling from the treatment groups that received SP-333, its vehicle control (0.1M phosphate buffer, pH 7) and the reference compound (5-ASA). A random number generator (www.random.org) was employed to select samples from these groups (7 from each of the SP-333-recipient groups and 6 from each of the vehicle and 5-ASA groups).\nMyeloperoxidase activity in colonic tissue samples was performed according to the method described (Krawisc et al., 1984). Briefly, the rate of change in absorbance at 450 nm was recorded when 20 μl of tissue extract was incubated with […] of reaction buffer containing 0.26 mg/ml 0-dianisidine and 0.6 μl/ml H2O2. Each reaction was performed in triplicate. The rate of reaction was determined (initial slope) and normalized to protein concentration of sample."}, "[2]": {"tested_on": "Ki-67 labeling of crypt epithelial cells", "assay": "Ki-67 labeling in large bowel cross sections, DSS-induced colitis in BDF-1 mice", "format": "in vivo, mouse", "conditions": "5-ASA treated mice", "excerpt": "as §1\nEmploying standard procedures, two non-serial sections from each animal, were de-waxed in xylene and rehydrated in graded alcohols to PBS (pH 7.4). Endogenous peroxidase was blocked by incubation in 0.3% […] for 30 min. Antigen retrieval was performed by placing the slides in 1 L of citrate buffer (pH 6) and microwaving at high power for 20 minutes. After cooling for 15 minutes, sections were incubated with 10% normal goat serum for 30 minutes to block non-specific binding Primary antibody (mouse monoclonal IgG, clone MIB-1, Dako) at 1/50 dilution was added and incubated for 1 hour at room temperature. Sections were washed and incubated with biotinylated secondary IgG antibody (1/200 dilution; Vector Labs Inc.), for 45 minutes at room temperature. Subsequently, slides were washed and incubated with ABC Elite reagents (Vector Labs Inc.), for 30 minutes at room temperature. […] Sections were counterstained with thionine, dehydrated and mounted."}, "NF-κB [3]": {"tested_on": "NF-κB", "assay": "Inhibition of NF-κB signaling in LPS-stimulated T84 cells, Western blot", "format": "cell-based, human", "experimental": "Approximately 1.5×10^6 T84 cells were seeded into 100 mm dishes and cultured essentially as described (Shailubhai et al. 2000). At 85-90% confluence, cells were washed and treated with 10 μg/ml lipopolysaccharides (LPS) from Escherichia coli (Sigma-Aldrich, St. Louis, Mo.) for 4 h. Subsequent to LPS treatment, cells were washed and replenished with fresh media containing 8-Bromo-cyclic GMP (8-Br-cGMP) at 0, 0.1, 1, 10, 100 and 1000 μM (Enzo Life Science, Farmingdale, N.Y.), or SP-333 at 0, 0.01, 0.1, 1 and 10 μM together with 500 μM of phosphodiesterase inhibitor Zaprinast (Sigma-Aldrich, St. Louis, Mo.) for 16 h before harvest. For analyzing phosphorylation status of IKK-α/β, T84 cells were stimulated with LPS (10 μg/ml) for 4 h followed by treatment with 0.1 and 1.0 μM of SP-333 in the presence of 500 μM Zaprinast, for 2 h. The control cells (without LPS treatment) were washed and refilled with fresh media and harvested simultaneously with treated cells. Nuclear and cytosolic extracts were prepared by the previously described method (Aiamkitsumrit et al. 2007). Protein concentration was measured with a Bio-Rad protein assay kit (Bio-Rad, Hercules, Calif.). The extracts were stored at −80° C. until use.\nT84 cells at 85-90% confluence were washed and treated with 10 μg/ml Escherichia coli LPS (Sigma-Aldrich, St. Louis, Mo.) for 4 h.\nWestern Blot analysis: This was performed essentially as described^21 employing either 50 μg of cytoplasmic or 25 μg proteins of the nuclear fractions. The blots were probed overnight with primary antibodies of interest (anti-p65 antibody, 1:200 dilution; anti-IκB antibody 1:500 dilution; anti-phosphorylated p65 antibody, 1:250 dilution; anti-phosphorylated IκB antibody 1:250 dilution; all were from Santa Cruz Biotechnology (Santa Cruz, Calif.). Anti-IKK-β and phosphorylated IKK-α/β (Ser 176/180) were purchased from Cell Signaling Technology, Boston, Mass. and used at 1:500 dilution; anti-mouse or anti-rabbit antibodies conjugated to […] were used for chemiluminescence detection as recommended by manufacturer (GE Healthcare, Piscataway, N.J.)."}, "NF-κB [4]": {"tested_on": "NF-κB", "assay": "Inhibition of NF-κB signaling in LPS-stimulated T84 cells, Western blot", "format": "cell-based, human", "conditions": "zaprinast 500 μM alone"}, "[5]": {"format": "in vitro ADME", "experimental": "The potency of test peptides to stimulate cGMP synthesis in T84 cells was assayed by a published procedure (Shailubhai et al. 2000). Briefly, confluent monolayers of T-84 cells in 24-well plates were washed twice with 250 μl of DMEM containing 50 mM HEPES (pH 7.4), pre-incubated at 37° C. for 10 min with 250 μl of DMEM containing 50 mM HEPES (pH 7.4) and 1 mM isobutylmethylxanthine (IBMX), followed by incubation with test peptide for 30 min. The medium was aspirated, and the reaction was terminated by the addition of 3% perchloric acid. Following centrifugation, and neutralization with 0.1 N NaOH, the resulting supernatant was used directly for measurements of intracellular cGMP using an ELISA kit (Caymen Chemical, Ann Arbor, Mich.). Results are expressed as pmol of cGMP/mg of protein in the cell extracts.\nPlecanatide and SP-333 were incubated in simulated intestinal fluid (SIF) for 6-24 h. Inactivated SIF was used as a control. Following the treatment, samples were analyzed by HPLC by cGMP production in T84 cells. […] The active metabolite, SP-338 was characterized by MS and MS/MS and identified to be formed via removal of carboxyl terminal leucine possibly due to cleavage by carboxypeptidases."}, "[6]": {"molecular_target": "guanylate cyclase C (GC-C) receptor (human, UniProt P25092 24-1073)", "sequence (P25092 24-1073)": "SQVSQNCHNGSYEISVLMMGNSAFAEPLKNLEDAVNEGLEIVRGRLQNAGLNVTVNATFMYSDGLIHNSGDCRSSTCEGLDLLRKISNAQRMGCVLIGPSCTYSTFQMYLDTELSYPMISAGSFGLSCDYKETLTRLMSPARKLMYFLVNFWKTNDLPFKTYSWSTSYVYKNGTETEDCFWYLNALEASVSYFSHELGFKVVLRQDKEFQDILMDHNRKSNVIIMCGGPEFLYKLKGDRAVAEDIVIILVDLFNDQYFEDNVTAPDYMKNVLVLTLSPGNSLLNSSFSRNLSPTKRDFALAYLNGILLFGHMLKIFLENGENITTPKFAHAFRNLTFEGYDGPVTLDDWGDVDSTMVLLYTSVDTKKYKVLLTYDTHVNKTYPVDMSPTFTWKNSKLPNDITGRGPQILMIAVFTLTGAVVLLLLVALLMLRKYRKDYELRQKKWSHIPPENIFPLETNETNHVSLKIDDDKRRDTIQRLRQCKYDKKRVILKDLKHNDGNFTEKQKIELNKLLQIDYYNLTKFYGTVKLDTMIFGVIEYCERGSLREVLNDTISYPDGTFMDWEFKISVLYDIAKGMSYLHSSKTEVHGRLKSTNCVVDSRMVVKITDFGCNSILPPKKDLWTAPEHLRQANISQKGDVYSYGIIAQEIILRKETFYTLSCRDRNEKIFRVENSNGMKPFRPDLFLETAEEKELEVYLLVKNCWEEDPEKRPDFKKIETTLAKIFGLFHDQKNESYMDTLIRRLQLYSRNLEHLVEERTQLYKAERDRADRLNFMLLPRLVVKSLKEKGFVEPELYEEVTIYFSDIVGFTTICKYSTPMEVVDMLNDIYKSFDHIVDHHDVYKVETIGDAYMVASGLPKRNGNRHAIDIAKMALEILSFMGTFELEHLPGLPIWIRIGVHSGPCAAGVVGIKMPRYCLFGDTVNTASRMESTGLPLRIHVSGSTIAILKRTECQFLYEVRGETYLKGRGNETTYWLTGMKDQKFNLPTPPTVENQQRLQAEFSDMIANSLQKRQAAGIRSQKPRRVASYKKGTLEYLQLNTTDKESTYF", "assay": "cell-based or functional assay"}, "[7]": {"conditions": "5-ASA 100 mg/kg, vs DSS alone or DSS plus vehicle"}}, "note": "Bridge positions count the residues as written; N and C are the ends. Square brackets hold non-standard residues; d marks the D form. Ends that are not written are not given here.", "data": [{"molecule": "[Cl][Hg][Cl]", "note": "[HgCl2]", "values": [{"measurement": "GCRA-mediated cGMP production by T84 cells", "setting": "Src", "result": "inhibited"}]}, {"molecule": "Nc1ccc(O)c(C(=O)O)c1", "note": "[5-ASA, 5-aminosalicylic acid, reference compound]", "values": [{"measurement": "histological evaluation of colon tissues (crypts)", "setting": "DSS-induced colitis; 5-ASA 100 mg/kg", "result": "only patchy loss of crypts"}, {"measurement": "mean DAI scores", "setting": "DSS-induced colitis; [7]", "result": "lower"}, {"measurement": "mean scores of colitis severity", "setting": "DSS-induced colitis; [7]", "result": "lower"}, {"measurement": "histopathology score", "setting": "DSS-induced colitis; DSS+5-ASA 100 mg/kg, representative image FIG. 10F", "result": 2}, {"measurement": "MPO activity compared to DSS treated animals", "setting": "[1]", "result": "considerably reduced"}, {"measurement": "initial MPO activity", "setting": "[1]; p=0.010", "result": "0.029±0.004", "unit": "units/minute"}, {"measurement": "proportion of Ki-67 positive crypts", "setting": "[2]", "result": "53.5±12.33", "unit": "%"}]}, {"molecule": "Nc1nc2c(nc(Br)n2[C@@H]2O[C@@H]3COP(=O)(O)O[C@H]3[C@H]2O)c(=O)[nH]1", "note": "[8-Br-cGMP, 8-Bromo-cyclic GMP, reference compound]", "values": [{"measurement": "levels of phospho-p65", "setting": "NF-κB [3]; LPS 10 μg/ml 4 h, then 8-Br-cGMP (1 mM) 16 h, zaprinast 500 μM", "result": "reduced levels of phospho-p65 in a dose-dependent manner"}]}, {"molecule": "CCCOc1ccccc1-c1nc2nn[nH]c2c(=O)[nH]1", "note": "[zaprinast, reference compound]", "values": [{"measurement": "NF-κB activation", "setting": "NF-κB [3]; zaprinast 500 μM alone, T84 cells", "result": "did not inhibit NF-κB activation"}, {"measurement": "cGMP levels", "setting": "NF-κB [4]", "result": "did not increase cGMP levels"}]}, {"molecule": "Asn^1-Asp^2-Glu^3-Cys^4-Glu^5-Leu^6-Cys^7-Val^8-Asn^9-Val^10-Ala^11-Cys^12-Thr^13-Gly^14-Cys^15 (NDECELCVNVACTGC) [SP-338]", "values": [{"measurement": "biological activity of the major metabolite of plecanatide in SIF", "setting": "[5]", "result": "appears to retain biological activity"}]}, {"molecule": "[dN]DECELCVNVACTGC[dL] (disulfide 4-12, 7-15)", "note": "[SP-333]", "values": [{"measurement": "cGMP accumulation in T84 cells (EC50)", "setting": "[6]", "result": 283, "unit": "nM"}, {"measurement": "cGMP synthesis in T84 cells (EC50)", "setting": "[6]", "result": 283, "unit": "nM"}]}, {"molecule": "NDECELCVNVACTGCL (disulfide 4-12, 7-15)", "note": "[Plecanatide (SP-304)]", "values": [{"measurement": "cGMP accumulation in T84 cells (EC50)", "setting": "[6]", "result": 189, "unit": "nM"}]}]}
